Source: ChEMBL document CHEMBL1201862, “PubChem BioAssay data set” (2004)
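1) Cells in 96-well plates. 2) Compound, 48 h, 5 concentrations. 3) Linear interpolation between surrounding doses. 4) Unreached endpoint = highest concentration. Here, GI50 denotes the concentration required for 50% inhibition of growth.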 The source made the active and inactive calls. No stated cut-off is given here; in the data, active = GI50 up to about 1.1 µM and inactive = higher.

Experiments:
Assay in all cases: NCI-60 cell line screen, 48 h
BT-549 = test system: BT-549
Malme-3M = test system: Malme-3M
786-0 = test system: 786-0
NCI-H23 = test system: NCI-H23
RPMI-8226 = test system: RPMI-8226
CCRF-CEM = test system: CCRF-CEM
A498 = test system: A498
CAKI-1 = test system: CAKI-1
EKVX = test system: EKVX
SR = test system: SR
Hs-578T = test system: Hs-578T
SK-OV-3 = test system: SK-OV-3
UO-31 = test system: UO-31
OVCAR-4 = test system: OVCAR-4
HOP-18 = test system: HOP-18
SN12C = test system: SN12C
KM12 = test system: KM12
ACHN = test system: ACHN
HL-60 = test system: HL-60
SNB-75 = test system: SNB-75

Measured: GI50

OCC1CCC(n2cnc3c(O)ncnc32)O1 (stereo not given)
inactive: BT-549 > 1000 µM | Malme-3M > 100 µM | 786-0 > 1000 µM | NCI-H23 > 100 µM | RPMI-8226 > 100 µM | CCRF-CEM > 100 µM | A498 > 92 µM | CAKI-1 > 100 µM | EKVX > 100 µM | SR > 1000 µM | Hs-578T > 1000 µM | SK-OV-3 > 100 µM | UO-31 502 µM | OVCAR-4 > 100 µM | HOP-18 > 100 µM | SN12C > 100 µM | KM12 > 100 µM | ACHN > 1000 µM | HL-60 > 100 µM

N#CC12Cc3cc4c(cc3-c3cccc(c31)CCN2C(=O)c1ccccc1)OCO4 (stereo not given)
inactive: Malme-3M > 100 µM | 786-0 > 10 µM | NCI-H23 > 100 µM | RPMI-8226 > 100 µM | CCRF-CEM > 100 µM | A498 53.3 µM | EKVX > 100 µM | SR > 100 µM | SK-OV-3 > 100 µM | SNB-75 21.6 µM | UO-31 > 100 µM | HOP-18 > 100 µM | SN12C > 100 µM | KM12 > 100 µM | ACHN > 100 µM | HL-60 > 100 µM

Cc1[nH]c(=O)nc(N/N=C/c2ccc(Cl)cc2)c1C(=O)Nc1ccc(Cl)cc1
inactive: BT-549 > 100 µM | Malme-3M 16.9 µM | 786-0 19.4 µM | NCI-H23 30.7 µM | RPMI-8226 22.1 µM | CCRF-CEM > 66.7 µM | A498 32.6 µM | CAKI-1 53.5 µM | EKVX > 86.5 µM | SR 44.3 µM | Hs-578T > 100 µM | SK-OV-3 12.2 µM | SNB-75 6.05 µM | UO-31 > 100 µM | OVCAR-4 9.95 µM | HOP-18 1.22 µM | SN12C 35.6 µM | KM12 32.9 µM | ACHN 54.8 µM | HL-60 > 100 µM

CC(C)C1=Cc2ccc3c(c2C(=O)C1=O)CCCC3(C)C [MILTIRONE]
inactive: Malme-3M 4.74 µM | 786-0 5.65 µM | NCI-H23 13.7 µM | RPMI-8226 2.12 µM | CCRF-CEM 1.17 µM | A498 17.4 µM | CAKI-1 2.47 µM | EKVX 14.5 µM | SR 2.36 µM | SK-OV-3 18.1 µM | SNB-75 15.3 µM | UO-31 6.64 µM | OVCAR-4 1.77 µM | HOP-18 2.58 µM | SN12C 5.56 µM | KM12 16.1 µM | ACHN 5.82 µM | HL-60 2.37 µM

Cc1ccc(NC(=O)C(=O)C2C(=O)N(c3ccccc3)N=C2N)cc1C (stereo not given)
inactive: Malme-3M > 100 µM | 786-0 > 100 µM | NCI-H23 > 100 µM | RPMI-8226 > 100 µM | CCRF-CEM > 100 µM | A498 > 100 µM | CAKI-1 > 100 µM | EKVX > 100 µM | SR > 100 µM | SK-OV-3 > 100 µM | SNB-75 > 100 µM | UO-31 > 100 µM | OVCAR-4 > 100 µM | HOP-18 > 100 µM | SN12C > 100 µM | KM12 > 100 µM | ACHN > 100 µM | HL-60 > 100 µM

CC(=O)OCC1OC(OC(C)=O)C(NC#N)C(OC(C)=O)C1OC(C)=O (stereo not given)
inactive: Malme-3M > 100 µM | 786-0 > 100 µM | NCI-H23 > 100 µM | RPMI-8226 67.8 µM | CCRF-CEM 43.7 µM | A498 > 100 µM | CAKI-1 > 100 µM | SR 73.5 µM | SK-OV-3 > 100 µM | SNB-75 > 100 µM | UO-31 36.1 µM | OVCAR-4 > 100 µM | HOP-18 > 100 µM | SN12C > 100 µM | KM12 > 100 µM | ACHN 49.7 µM | HL-60 > 100 µM

ICC1CCCO1 (stereo not given)
inactive: Malme-3M > 100 µM | NCI-H23 > 100 µM | RPMI-8226 > 100 µM | CCRF-CEM > 100 µM | A498 > 100 µM | CAKI-1 > 100 µM | EKVX > 100 µM | SR > 100 µM | SNB-75 > 100 µM | OVCAR-4 > 100 µM | HOP-18 > 100 µM | SN12C > 100 µM | KM12 > 100 µM | ACHN > 100 µM | HL-60 > 100 µM

O=S1(=O)C[C@H](O)[C@H](O)CS1
inactive: Malme-3M > 100 µM | 786-0 > 100 µM | NCI-H23 > 100 µM | RPMI-8226 > 100 µM | A498 > 100 µM | CAKI-1 > 100 µM | EKVX > 100 µM | SR > 100 µM | SK-OV-3 > 100 µM | SNB-75 > 100 µM | UO-31 > 100 µM | OVCAR-4 > 100 µM | HOP-18 > 100 µM | SN12C > 100 µM | KM12 > 100 µM | ACHN > 100 µM | HL-60 > 100 µM

COc1ccc(N2C(=O)C3c4[nH]c5ccccc5c4C4CC(C)CC(C)C4C3C2=O)cc1 (stereo not given)
inactive: Malme-3M > 100 µM | 786-0 > 100 µM | NCI-H23 > 100 µM | RPMI-8226 > 100 µM | CCRF-CEM > 100 µM | A498 > 100 µM | EKVX > 100 µM | SR > 100 µM | SK-OV-3 > 100 µM | SNB-75 > 100 µM | UO-31 > 100 µM | OVCAR-4 > 100 µM | HOP-18 > 100 µM | SN12C > 100 µM | ACHN > 100 µM | HL-60 > 100 µM

O=C/C(=C(/Cl)c1ccc(O)cc1)c1ccccc1
inactive: Malme-3M 23.7 µM | 786-0 27.8 µM | NCI-H23 24.4 µM | RPMI-8226 17.2 µM | CCRF-CEM 15.2 µM | A498 50.5 µM | CAKI-1 27.4 µM | EKVX 28.2 µM | SR > 100 µM | SK-OV-3 26.5 µM | SNB-75 15.3 µM | UO-31 21 µM | OVCAR-4 22.2 µM | HOP-18 20.2 µM | SN12C 24.6 µM | KM12 35.6 µM | ACHN 20.9 µM | HL-60 38.5 µM

O=CN/C=C\c1cc(O)ccc1O
inactive: Malme-3M 13.8 µM | 786-0 15.8 µM | NCI-H23 15.8 µM | RPMI-8226 13.6 µM | CCRF-CEM 5.11 µM | A498 74.8 µM | CAKI-1 12.7 µM | EKVX 15.5 µM | SR 3.91 µM | SK-OV-3 > 100 µM | SNB-75 > 100 µM | UO-31 13.8 µM | OVCAR-4 12.7 µM | HOP-18 16.8 µM | SN12C 14 µM | KM12 > 22.5 µM | ACHN 15 µM | HL-60 10.4 µM

C=CCC1(CN(C)C)CC/C(=C\c2cc(OC)c(OC)c(OC)c2)C1=O (stereo not given)
inactive: Malme-3M 33.1 µM | 786-0 19.4 µM | NCI-H23 35 µM | RPMI-8226 24.5 µM | CCRF-CEM 23.3 µM | A498 29.4 µM | CAKI-1 19.4 µM | EKVX 12.2 µM | SR 19.6 µM | SNB-75 62.2 µM | UO-31 26.5 µM | OVCAR-4 22.2 µM | HOP-18 22.3 µM | SN12C 22.3 µM | KM12 17.4 µM | ACHN 25.8 µM | HL-60 6.81 µM

C/C=C1\CN2CCc3c([nH]c4ccccc34)C2CC1CCO (stereo not given)
inactive: Malme-3M > 100 µM | 786-0 > 100 µM | NCI-H23 > 100 µM | CCRF-CEM > 100 µM | A498 > 100 µM | EKVX > 100 µM | SR > 100 µM | SK-OV-3 > 100 µM | SNB-75 28.8 µM | UO-31 74.8 µM | OVCAR-4 > 100 µM | HOP-18 > 100 µM | SN12C > 100 µM | KM12 > 100 µM | ACHN > 100 µM | HL-60 > 100 µM

Cc1ccc2nc3c(C)c(Cl)c(=O)cc-3sc2c1
inactive: BT-549 20.9 µM | Malme-3M > 45.7 µM | 786-0 49.7 µM | NCI-H23 13.2 µM | RPMI-8226 3.85 µM | CCRF-CEM 3.63 µM | A498 40.2 µM | CAKI-1 28.2 µM | EKVX 38.8 µM | SR 5.86 µM | Hs-578T 21.7 µM | SK-OV-3 > 100 µM | SNB-75 14.5 µM | UO-31 10.2 µM | OVCAR-4 18 µM | HOP-18 19.7 µM | SN12C 26.6 µM | KM12 23.1 µM | ACHN 18.5 µM | HL-60 2.59 µM

O=c1c(Cc2ccccc2)c(O)cc2n1CCC2
inactive: Malme-3M > 100 µM | 786-0 > 100 µM | NCI-H23 > 100 µM | RPMI-8226 > 100 µM | CCRF-CEM 41.5 µM | A498 > 100 µM | CAKI-1 > 100 µM | EKVX > 100 µM | SR > 100 µM | SK-OV-3 > 100 µM | SNB-75 > 100 µM | UO-31 > 100 µM | OVCAR-4 > 100 µM | HOP-18 > 100 µM | SN12C > 100 µM | KM12 > 100 µM | ACHN > 100 µM

CCOC(=O)C1=C(Nc2cccc3ccccc23)OC/C1=N\NC(=O)c1ccccc1O
inactive: Malme-3M 28.9 µM | 786-0 21 µM | NCI-H23 4.09 µM | RPMI-8226 16.7 µM | CCRF-CEM 4.86 µM | A498 19.5 µM | CAKI-1 7.28 µM | EKVX 21.3 µM | SR 7.55 µM | SK-OV-3 26 µM | SNB-75 3.39 µM | UO-31 4.88 µM | OVCAR-4 9.68 µM | HOP-18 11.1 µM | SN12C 23.4 µM | KM12 25.3 µM | ACHN 8.63 µM | HL-60 6.93 µM
